The source of these data is article PMC4145669, “The structure, function and properties of sirohaem decarboxylase - an enzyme with structural homology to a transcription factor family that is part of the alternative haem biosynthesis pathway” (Molecular Microbiology, 2014).

The assay deals with T1, D. desulfuricans AhbA/B (sirohaem decarboxylase) (Desulfovibrio desulfuricans, UniProt B8J364+B8J3A4).
T1 construct: gene Ddes_0286; full-length AhbA (untagged) and AhbB with N-terminal hexa-His tag (kept), coexpressed in E. coli; heterodimer, 40 kDa by gel filtration
T1 sequence (B8J364 1-173): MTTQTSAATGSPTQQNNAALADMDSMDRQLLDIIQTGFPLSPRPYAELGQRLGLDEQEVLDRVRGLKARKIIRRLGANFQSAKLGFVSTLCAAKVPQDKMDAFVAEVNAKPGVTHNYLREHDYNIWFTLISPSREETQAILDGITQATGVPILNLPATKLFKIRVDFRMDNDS
T1 sequence (B8J3A4 1-159): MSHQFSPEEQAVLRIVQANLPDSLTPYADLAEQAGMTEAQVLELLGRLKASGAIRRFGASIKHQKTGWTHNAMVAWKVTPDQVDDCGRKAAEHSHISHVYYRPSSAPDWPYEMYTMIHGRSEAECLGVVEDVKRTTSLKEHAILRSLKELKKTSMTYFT
As to the kind of experiment: anaerobic stopped assay, MS quantification, global fit. Conditions: competitive model of both substrates and product, single active site, 23 μM sirohaem, 2.3 μM enzyme. In kind it is biochemical.

Like-named read-outs stand apart in the source and are kept apart here.

Consider monodecarboxysirohaem [MDSH], for which, for the setting “intermediate formed in situ from sirohaem, read-out: Km2”, the Km worked out at 9.94 ± 1.19 µM. Take sirohaem [SH]: for the setting “read-out: Km1”, the Km was 11.7 ± 3.36 µM.
